{
  "source": "paper PMC7297445",
  "about": "“Pharmacokinetic/Pharmacodynamic Determination and Preclinical Pharmacokinetics of the β-Lactamase Inhibitor ETX1317 and Its Orally Available Prodrug ETX0282” (ACS Infectious Diseases, 2020)",
  "key": {"E. coli ARC2687": {"tested_on": "E. coli ARC2687", "assay": "Murine neutropenic thigh infection model", "format": "in vivo, mouse", "method": "(§1) In vivo neutropenic infection models in the mouse were conducted as previously described.[48],[49] All procedures were performed to Entasis approved IACUC policies and guidelines as well as OLAW standards. Briefly, Female CD-1 mice (20–22 g, Charles River Laboratories) were acclimated for 5 days prior to start of study. Animals were housed 3 per cage with free access to food and water. Mice were rendered neutropenic via two doses of cyclophosphamide on days −4 and −1 with 150 mg/kg and 100 mg/kg delivered intraperitoneally in a dose volume of 10 mL/kg, respectively.[48]\n(§2) Enterobacteriaceae isolates ARC2687, ARC4488, ARC5118, NMC101, and ARC4419 were prepared for infection from an overnight plate culture. A portion of the plate was resuspended in sterile saline and adjusted to an OD of 0.1 at 625 nm. The adjusted bacterial suspension was further diluted to target an infecting inoculum of approximately 5.0 × 10^6–1.0 × 10^7 CFU/mouse. The actual inoculum size varied between 5.5 × 10^6–1.6 × 10^6 CFU/thigh and administered via intramuscular injection of (100 μL). Plate counts of the inoculum were performed to confirm inoculum concentration and treatment was initiated 2 h after bacterial challenge.\n(§3) ETX0282 and CPDP were formulated in 0.5% HPMC/0.1% Tween 80 suspension. meropenem (utilized as a positive control) was solubilized in water for injection. All studies utilized a meropenem dosed at 600 mg/kg q6h subcutaneously as positive control against meropenem sensitive isolates (MIC ≤ 2 μg/mL) and as a negative control against meropenem resistant isolates. For dose arms utilizing a combination of ETX0282 and CPDP, both agents were reconstituted in the same vehicle. All dose concentrations were adjusted to deliver targeted mg/kg doses within a dose volume of 10 mL/kg. Formulation potency was verified by LC/MS/MS.\n(§4) ETX0282 and CPDP were administered via q6h dose intervals in order to achieve targeted unbound exposures. At 24 h post initiation of therapy, animals were euthanized, tissue samples aseptically collected and homogenized. Bacterial colony enumeration of tissue homogenate was performed by serial dilution on TSA plates which were incubated overnight at 35 °C prior to colony (CFU) counting."}, "K. pneumoniae ARC4488": {"tested_on": "K. pneumoniae ARC4488", "assay": "Murine neutropenic thigh infection model", "format": "in vivo, mouse", "conditions": "50 mg/kg p.o./q6h", "method": "as §1, §2, §3, §4"}, "K. pneumoniae ARC5118": {"tested_on": "K. pneumoniae ARC5118", "assay": "Murine neutropenic thigh infection model", "format": "in vivo, mouse", "conditions": "50 mg/kg p.o./q6h", "method": "as §1, §2, §3, §4"}, "E. coli ARC4419": {"tested_on": "E. coli ARC4419", "assay": "Murine neutropenic thigh infection model", "format": "in vivo, mouse", "method": "(§5) To further understand whether this in vitro activity translated to in vivo efficacy, an additional neutropenic thigh study was conducted in mice with increasing doses of ETX0282 alone vs E. coli NMC101 (ETX1317 MICBLI = 1 μg/mL) and ARC4419 (ETX1317 MICBLI = 0.25 μg/mL). […] Despite the significant exposure of ETX1317, a 200 mg/kg q6h dose of ETX0282 alone was ineffective for both strains (Table 6).\nas §1, §2, §3, §4"}, "E. coli NMC101": {"tested_on": "E. coli NMC101", "assay": "Murine neutropenic thigh infection model", "format": "in vivo, mouse", "method": "as §5, §1, §2, §3, §4"}, "[1]": {"tested_on": "E. coli strain (ATCC 25922)", "assay": "Murine neutropenic thigh model, CPDP dose range study", "format": "in vivo, mouse", "conditions": "50 mg/kg oral q6h, administered alone", "source_text": "All in vivo efficacy studies were supported with PK of ETX1317 and CPD following oral administration of ETX0282 and CPDP. For the purposes of understanding the exposure-PD response relationship, total systemic concentrations of ETX1317 and cefpodoxime were normalized to unbound drug levels after accounting for protein binding with percent unbound estimates of 93% and 66%, respectively, in mouse plasma (Table S2). An in vivo dose range study with CPDP administered alone against a susceptible E. coli strain (ATCC 25922, CPD MIC = 0.5 μg/mL) was completed initially in a murine neutropenic thigh model to confirm its PK/PD target. In this study a 50 mg/kg oral dose of CPDP administered q6h was consistent with achieving 1–log kill over 24 h. […] Oral exposure was generally dose proportional to 50 mg/kg; however, it became less than dose proportional at ≥200 mg/kg.\nIn vivo neutropenic infection models in the mouse were conducted as previously described.[48],[49] All procedures were performed to Entasis approved IACUC policies and guidelines as well as OLAW standards. Briefly, Female CD-1 mice (20–22 g, Charles River Laboratories) were acclimated for 5 days prior to start of study. Animals were housed 3 per cage with free access to food and water. […]"}, "[2]": {"assay": "Mouse oral pharmacokinetics (satellite infected animals)", "format": "in vivo", "conditions": "after oral administration in mice"}, "[3]": {"assay": "Human PK prediction (allometric scaling)", "conditions": "based upon non-clinical PK data", "source_text": "The methodology utilized for prediction of human PK of ETX1317 was consistent with methods used in support of similar chemotypes such as avibactam and ETX2514.[43] Human predictions for volume of distribution (Vd,ss) and clearance (CL) were within 2-fold of observed mean data obtained in Phase 1 studies, with renal clearance as the predominant clearance mechanism.[44],[45] Pharmacokinetic and excretion data from rats, dogs, and monkeys were used collectively for the projection of ETX1317 PK. Liver S9 incubations were also performed across all species (including human) to confirm consistent conversion of ETX0282 to ETX1317 at projected dose levels of ETX0282.[42] Human PK prediction of ETX1317 was completed using single species allometry for volume of distribution from dog PK and dog and monkey single species scaling using liver blood flow to predict non-renal clearance (CLNR).[46] […] While urinary excretion of ETX1317 was lower in dogs relative to monkeys and rats, human renal clearance (CLR) was predicted using dog-human renal correlation,[47] as this method has been highly predictive for compounds that are generally eliminated via renal excretion. The elimination half-life was estimated based upon the combined use of predicted parameters for clearance and volume of distribution, where T1/2 = ln 2*Vd,ss/CLtotal. Allometric scaling predicted human Vd,ss of 0.35 L/kg.\n(§6) Based upon the non-clinical PK data, a range of 60–80% bioavailability and a moderate absorption rate of 0.5–1.0 h^–1 have been considered for humans. In consideration of these predicted parameters, mean percent fT > CT of 1 μg/mL (2× MIC of 0.5 μg/mL) estimates for a 500 mg ETX1317 equiv q12h dose of ETX0282 are summarized in Table S3."}, "[4]": {"assay": "Low-dose oral PK of ETX0282 across rats, dogs and monkeys", "format": "in vivo", "conditions": "oral 1 to 10 mg/kg", "method": "Intravenous and oral pharmacokinetics of ETX1317 and ETX0282 in preclinical species are summarized in Table 7 and Table S1, respectively. Time vs concentration profiles are depicted graphically in Figure S1.\nas §6\nIntravenous pharmacokinetics of ETX1317 investigated in jugular vein cannulated male Sprague–Dawley rats (Charles River Laboratories, n = 3/route) at a dose of 10 mg/kg formulated in 0.9% saline. Oral pharmacokinetics of ETX0282 was evaluated at a 10 mg/kg equivalent dose of ETX1317 formulated in 25:75 PEG 400:WFI. The pH of each formulation was verified to fall within a range of 4–7 and were confirmed to be in solution prior to dosing. Potency was verified by LC/MS/MS. Dose volumes were 5 and 10 mL/kg for ETX1317(i.v.) and ETX0282(p.o.), respectively for rats. In both dog (male, 3/route) and monkey (male, 3/route) studies, i.v. and p.o. doses were formulated on 25:75 PEG 400:WFI (pH ∼5) and administered at a dose of ∼1 mg/kg. Dose volume was 1 mL/kg for both routes in dogs and monkeys with the i.v. dose infused over 15 min. […]"}, "[5]": {"design": "method as in PMID 32658473", "conditions": "across all species, including humans; cited from earlier work"}, "[6]": {"design": "method as in PMID 9950279", "conditions": "oral; PEPT1 substrate; cited from earlier work"}, "[7]": {"conditions": "ETX0282 alone 200 mg/kg q6h, combination 50:50 mg/kg q6h"}},
  "note": "“Also recorded” adds a separate entry of the source.",
  "data": [
    {"smiles": "COCC1=C(C(=O)OC(C)OC(=O)OC(C)C)N2C(=O)[C@@H](NC(=O)/C(=N\\OC)c3csc(N)n3)[C@H]2SC1", "note": "(stereo partly shown) [CPDP, cefpodoxime proxetil]", "values": [
      {"measurement": "log10 CFU/g thigh change 24 h post therapy initiation", "setting": "E. coli ARC2687; 50 mg/kg p.o./q6h", "result": "+3.61 log10 CFU/g"},
      {"measurement": "log10 CFU/g thigh change 24 h post therapy initiation", "setting": "K. pneumoniae ARC4488", "result": "+3.58 log10 CFU/g"},
      {"measurement": "log10 CFU/g thigh change 24 h post therapy initiation", "setting": "K. pneumoniae ARC5118", "result": "+2.66 log10 CFU/g"},
      {"measurement": "log10 CFU/g thigh change 24 h post therapy initiation", "setting": "E. coli ARC4419; 50 mg/kg p.o./q6h", "result": "+2.23 log10 CFU/g"},
      {"measurement": "log10 CFU/g thigh change 24 h post therapy initiation", "setting": "E. coli NMC101; 50 mg/kg p.o./q6h", "result": "+3.39 log10 CFU/g"},
      {"measurement": "efficacy over 24 h", "setting": "[1]", "result": "1–log kill"},
      {"measurement": "systemic concentrations of intact prodrug", "setting": "[2]", "result": "No concentrations of intact CPDP and ETX0282 were observed systemically"}
    ]},
    {"smiles": "CC1=C[C@@H](C(N)=O)N2C[C@@H]1N(O[C@H](F)C(=O)OC(C)C)C2=O", "note": "[ETX0282]", "values": [
      {"measurement": "log10 CFU/g thigh change 24 h post therapy initiation", "setting": "E. coli ARC2687; 10 mg/kg p.o./q6h (footnote c)", "result": "+2.93 ^c log10 CFU/g"},
      {"measurement": "log10 CFU/g thigh change 24 h post therapy initiation", "setting": "K. pneumoniae ARC5118", "result": "+1.31 log10 CFU/g"},
      {"measurement": "log10 CFU/g thigh change 24 h post therapy initiation", "setting": "E. coli ARC4419; 10 mg/kg p.o./q6h", "result": "+1.41 log10 CFU/g"},
      {"measurement": "log10 CFU/g thigh change 24 h post therapy initiation", "setting": "E. coli ARC4419; 50 mg/kg p.o./q6h", "result": "+1.06 log10 CFU/g"},
      {"measurement": "log10 CFU/g thigh change 24 h post therapy initiation", "setting": "E. coli ARC4419; 200 mg/kg p.o./q6h", "result": "+1.07 log10 CFU/g"},
      {"measurement": "in vivo efficacy in words", "setting": "E. coli ARC4419; [7]", "result": "ineffective"},
      {"measurement": "log10 CFU/g thigh change 24 h post therapy initiation", "setting": "E. coli NMC101; 10 mg/kg p.o./q6h", "result": "+2.10 log10 CFU/g"},
      {"measurement": "log10 CFU/g thigh change 24 h post therapy initiation", "setting": "E. coli NMC101; 50 mg/kg p.o./q6h", "result": "+1.83 log10 CFU/g"},
      {"measurement": "log10 CFU/g thigh change 24 h post therapy initiation", "setting": "E. coli NMC101; 200 mg/kg p.o./q6h", "result": "+1.39 log10 CFU/g"},
      {"measurement": "in vivo efficacy in words", "setting": "E. coli NMC101; [7]", "result": "ineffective"},
      {"measurement": "systemic concentrations of intact prodrug", "setting": "[2]", "result": "No concentrations of intact CPDP and ETX0282 were observed systemically"},
      {"measurement": "absorption rate considered for humans", "setting": "[3]", "result": "0.5–1.0 h^–1"},
      {"measurement": "circulating levels of intact prodrug", "setting": "[4]", "result": "minimal to no levels of ETX0282"},
      {"measurement": "conversion of ETX0282 to ETX1317 in liver S9", "setting": "[5]", "result": "efficient conversion; also recorded: Extensive and quantitative conversion"}
    ]},
    {"smiles": "CC1(C)S[C@@H]2[C@H](NC(=O)[C@H](N)c3ccc(O)cc3)C(=O)N2[C@H]1C(=O)O", "note": "[amoxicillin]", "values": [
      {"measurement": "bioavailability", "setting": "[6]", "result": "> 70", "unit": "%"}
    ]}
  ]
}
